Measured values reported in US20240409536A1, “COMPOUNDS AND METHODS FOR MODULATING SPLICING” (REMIX THERAPEUTICS INC., priority 2021, published 2024).

What was measured:
[1] = tested on: HiBiT-tagged MYB protein; assay: HiBiT protein abundance assay, MYB (K562 HiBiT knock-in cells); assay type: cell-based, human; settings: 24 hours
Outline: (§1)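 Luminescent readout of HiBiT-tagged endogenous protein after lysis, following 24 h compound exposure of knock-in K562 lines at 37 °C. Ten 3-fold concentrations from 10 μM final, DMSO ≤0.25%. Four-parameter logistic fit of normalized response gives concentration halving abundance (IC50).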

[2] = tested on: HiBiT-tagged HTT protein; assay: HiBiT protein abundance assay, HTT (K562 HiBiT knock-in cells); assay type: cell-based, human; settings: 24 hours
Outline: as §1

[3] = tested on: HTT mRNA; assay: Splicing RT-qPCR assay, HTT canonical (CJ) and alternative (AJ) junction mRNA; assay type: cell-based; settings: Homo sapiens, A673 or K562 cells, 24 hours; for IC50: decrease in canonical junction mRNA; for AC50: increase in alternative junction mRNA
Outline: (§2)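 RT-qPCR read-out: CJ and AJ junction isoforms quantified from cell lysates, normalized to housekeeping GAPDH/GUSB (K562) or PPIA (A673). Cells had 24 h compound exposure, 11-point 3-fold series from 10 uM final, ≤0.25% DMSO.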

[4] = tested on: MYB mRNA; assay: Splicing RT-qPCR assay, MYB canonical (CJ) and alternative (AJ) junction mRNA; assay type: cell-based; settings: Homo sapiens, A673 or K562 cells, 24 hours; for IC50: decrease in canonical junction mRNA; for AC50: increase in alternative junction mRNA
Outline: as §2

Compound | IC50 [1] | IC50 [2] | IC50 [3] | IC50 [4] | AC50 [3] | AC50 [4]
Cc1cn2cc(NC(=O)c3ccc(N4C5CNCC54)c4nccnc34)cc(F)c2n1 (stereo not drawn) [Compound 262, 8-{3,6-diazabicyclo[3.1.0]hexan-6-yl}-N-{8-fluoro-2-methylimidazo[1,2-a]pyridin-6-yl}quinoxaline-5-carboxamide] | 0.1 to 1 µM | 0.1 to 1 µM | 0.1 to 1 µM | 0.1 to 1 µM | 0.1 to 1 µM | 0.1 to 1 µM
Cc1cn2cc(NC(=O)c3ccc(N4C[C@@H](C5CC5)N[C@@H](C)C4)c4nccnc34)cc(F)c2n1 [Compound 267, 8-((3R,5S)-3-cyclopropyl-5-methylpiperazin-1-yl)-N-(8-fluoro-2-methylimidazo[1,2-a]pyridin-6-yl)quinoxaline-5-carboxamide] | 0.1 to 1 µM | 1 to 10 µM | > 10 µM | 0.1 to 1 µM | > 10 µM | 0.1 to 1 µM
COc1ccc2c(N3C[C@@H](C)N[C@@H](C)C3)ccc(C(=O)Nc3cc(F)c4nc(C)cn4c3)c2n1 [Compound 268, 5-[(3R,5S)-3,5-dimethylpiperazin-1-yl]-N-{8-fluoro-2-methylimidazo[1,2-a]pyridin-6-yl}-2-methoxyquinoline-8-carboxamide] | < 0.1 µM | 1 to 10 µM | 1 to 10 µM | 0.1 to 1 µM | 1 to 10 µM | < 0.1 µM
COc1cc2c(N3C[C@@H](C)N[C@@H](C)C3)ccc(C(=O)Nc3cc(F)c4nc(C)cn4c3)c2nn1 [Compound 273, 5-[(3R,5S)-3,5-dimethylpiperazin-1-yl]-N-{8-fluoro-2-methylimidazo[1,2-a]pyridin-6-yl}-3-methoxycinnoline-8-carboxamide] | 0.1 to 1 µM | 0.1 to 1 µM | 0.1 to 1 µM | 0.1 to 1 µM | 0.1 to 1 µM | 0.1 to 1 µM
Cc1cn2cc(NC(=O)c3ccc(N4C[C@@H](C)N[C@@H](C)C4)c4nccnc34)nc(Cl)c2n1 [Compound 279] | < 0.1 µM | 1 to 10 µM | > 10 µM | < 0.1 µM | > 10 µM | 0.1 to 1 µM
Cc1cn2cc(NC(=O)c3ccc(N4C[C@@H](C)N[C@@H](C)C4)c4ncc(Cl)nc34)cc(F)c2n1 [Compound 281] | 1 to 10 µM | 1 to 10 µM | > 10 µM | 1 to 10 µM | > 10 µM | 1 to 10 µM
Cc1cn2cc(NC(=O)c3ccc(N4C[C@@H](C)N[C@@H](C)C4)c4ncc(N(C)C)nc34)cc(F)c2n1 [Compound 283] | < 0.1 µM | 0.1 to 1 µM | 0.1 to 1 µM | < 0.1 µM | 0.1 to 1 µM | 0.1 to 1 µM
C[C@@H]1CN(c2ccc(C(=O)Nc3ccc4nc(N(C)C)oc4c3)c3nccnc23)C[C@H](C)N1 [Compound 290] | > 10 µM | > 10 µM | > 10 µM | 1 to 10 µM | > 10 µM | > 10 µM

The next lines start with results.

IC50 [1] | IC50 [2] | IC50 [3] | IC50 [4] | Compound | AC50 [3] | AC50 [4]
< 0.1 µM | 0.1 to 1 µM | 1 to 10 µM | < 0.1 µM | Cc1cn2cc(NC(=O)c3ccc(N4C[C@@H](C)N[C@@H](C5CC5)C4)c4nccnc34)cc(F)c2n1 [Compound 266, 8-((3S,5R)-3-cyclopropyl-5-methylpiperazin-1-yl)-N-(8-fluoro-2-methylimidazo[1,2-a]pyridin-6-yl)quinoxaline-5-carboxamide] | 0.1 to 1 µM | < 0.1 µM
0.1 to 1 µM | 1 to 10 µM | 1 to 10 µM | 0.1 to 1 µM | Cc1cn2cc(NC(=O)c3ccc(N4CC[C@@H](N)C4)c4ccnnc34)cc(F)c2n1 [Compound 270] | 1 to 10 µM | < 0.1 µM
> 10 µM | > 10 µM | > 10 µM | > 10 µM | Cc1cn2cc(NC(=O)c3ccc(N4C[C@@H](C)N[C@@H](C)C4)c4ncc(O)nc34)cc(F)c2n1 [Compound 275] | > 10 µM | > 10 µM
< 0.1 µM | 0.1 to 1 µM | 0.1 to 1 µM | < 0.1 µM | COc1nc(NC(=O)c2ccc(N3C[C@@H](C)N[C@@H](C)C3)c3nccnc23)cn2cc(C)nc12 [Compound 277] | 1 to 10 µM | < 0.1 µM
0.1 to 1 µM | 1 to 10 µM | 1 to 10 µM | 0.1 to 1 µM | Cc1cn2c(C)c(NC(=O)c3ccc(N4C[C@@H](C)N[C@@H](C)C4)c4nccnc34)cc(F)c2n1 [Compound 285] | 1 to 10 µM | 1 to 10 µM
1 to 10 µM | > 10 µM | > 10 µM | 1 to 10 µM | COc1nc(NC(=O)c2ccc(N3C[C@@H](C)N[C@@H](C)C3)c3nccnc23)nc2cn(C)nc12 [Compound 287] | > 10 µM | > 10 µM
< 0.1 µM | 1 to 10 µM | 1 to 10 µM | < 0.1 µM | Cc1cn2cc(NC(=O)c3ccc(N4C[C@@H](C)N[C@@H](C)C4)c4nccnc34)nc(C)c2n1 [Compound 288] | 1 to 10 µM | < 0.1 µM
